This note sets out measurements from PubChem BioAssay (NCI).

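48-hour exposure; five concentrations; linearly interpolated endpoints. Definition used: TGI = concentration required for complete inhibition of growth.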 Some results are limits rather than exact numbers.

What all share (assay): NCI tumour cell line growth inhibition, 48 h
Test [1] deals with 786-0 renal.
For test [2], the system named is TK-10 renal.
Test [3] deals with SR leukemia.
In test [4] the test system is SF-539 CNS.
Test [5] has as its system KM12 colon.
Test [6] has as its system SW-620 colon.
The subject of test [7] is NCI-H23 lung.
The test system of test [8] is ACHN renal.
Test [9] relates to M19-MEL melanoma.
The subject of test [10] is HL-60(TB) leukemia.
Test [11] has as its system U251 CNS.
In test [12] the test system is NCI-H460 lung.
In test [13] the test system is HOP-62 NSCLC.
The test system of test [14] is COLO 205 colon.
In test [15] the test system is HCT-15 colon.
Test [16] deals with HOP-92 NSCLC.
The subject of test [17] is A498 renal.
Test [18] has as its system CAKI-1 renal.
For test [19], the system named is BT-549 breast.
Test [20] relates to T-47D breast.

`COc1cc(-c2cc(=O)c3ccccc3[nH]2)cc(OC)c1OC`: the TGI in test [1], in [2], in [3], in [4], in test [5] and in test [6] was over 75 µM each time. For the same compound, the TGI in test [7] is over 75 µM; in [8], over 75 µM; in test [9], over 75 µM; in test [10], over 7.5 µM; in test [11], over 75 µM; in test [12], over 75 µM. Besides, the TGI in [13], in [14] and in test [15] was over 75 µM each time.
In the case of `O=C(O)C12CC3CC(CC(F)(C3)C1)C2`, the TGI in test [1], in test [16], in test [2], in test [4], in test [17] and in test [5] was over 100 µM in each case. In addition, the TGI in test [6], in test [7], in test [8], in [9], in test [10] and in [11] was over 100 µM in each case. The TGI in test [12], in [13] and in [14] was over 100 µM each time.
`CCc1ccccc1NC(=O)CC1NC(=O)CS1` (stereo unspecified): the TGI in [1], in test [16], in test [2], in test [4], in test [17] and in test [5] was over 100 µM each time. In addition, the TGI in [6], in [18], in test [7], in test [9], in [10] and in [11] was over 100 µM each time. Also, the TGI in test [12], in test [13] and in test [14] was over 100 µM in each case.
Turning to `CN(C)CC(/C(Cc1ccccc1)=N\NC(=S)NN)c1ccccc1` (stereo unspecified), the TGI in [1], in test [16], in [2], in test [3], in test [4] and in [5] was over 100 µM throughout. The TGI in test [6], in test [18], in test [7], in test [8], in test [9] and in test [10] was over 100 µM throughout. For the same compound, the TGI in test [11], in test [12], in test [13], in test [14] and in test [15] was over 100 µM in each case.
For the compound `Nc1nc2c(ncn2CCCC(c2ccccc2)P(=O)(O)O)c(=O)[nH]1` (stereo unspecified), the TGI in test [1], in [16], in [2], in [4], in test [5] and in test [6] was over 100 µM each time. In addition, the TGI in test [18], in test [7], in test [8], in test [9], in test [10] and in test [11] was over 100 µM in each case. For the same compound, the TGI in test [12], in [13], in test [14] and in test [15] was over 100 µM in each case.
Take `COC(=O)c1ccc(C=C(C#N)C#N)cc1`: the TGI was 33.4 µM in [1]; 39.6 µM in test [16]; 79.1 µM in [2]; 39.8 µM in test [4]; over 100 µM in [17]; 92.2 µM in [5]. Besides, the TGI is 45.1 µM in test [6]; 74.7 µM in [18]; 38.4 µM in test [7]; 56.9 µM in [8]; 75.4 µM in test [9]; 58.1 µM in test [10]. The TGI in test [11] is 61.5 µM; in [12], over 100 µM; in [13], 74.8 µM; in [14] it was 74.6 µM; in [15], over 100 µM.
`NC(CCCCNCc1ccccc1O)C(=O)O` (stereo unspecified): the TGI in [1], in test [16], in test [2], in test [4], in test [17] and in test [5] was over 100 µM in each case. For the same compound, the TGI in test [6], in test [18], in [7], in [8], in test [9] and in test [10] was over 100 µM each time. The TGI in test [11], in test [12], in test [13], in test [14] and in [15] was over 100 µM each time.
Turning to `O=C(NCCCCCCCN1CCCCCCC1)C(C1CCCCC1)C1CCCCC1`, the TGI in [1] stood at 12.6 µM; in test [16], 23.7 µM; in test [2], 25.6 µM; in [3] it was 6.84 µM; in test [4], 24.6 µM; in test [17], 15.5 µM. Moreover, the TGI in test [5] was 27.5 µM; in test [6], 56.1 µM; in test [19] it was 28.7 µM; in test [18] it was 20.6 µM; in test [7] it was 28.5 µM; in test [8] it was 24.4 µM. The TGI in test [10] was found to be 22.2 µM; in [11], 20.8 µM; in test [12], 23.6 µM; in [20], 23 µM; in test [13], 14.4 µM; in [14], 8.64 µM. The same compound showed a TGI in test [15] of 15.2 µM.
